Assays:
[1] = Toxicity against human HepG2 cells incubated for 48 hrs by MTT assay; format: cell-based; conditions: read-out: TC50
[2] = system: Trypanosoma brucei; assay: Antiparasite activity against Trypanosoma brucei 427 assessed as growth inhibition incubated for 48 hrs by PrestoBlue based fluorescence assay; format: functional, organism-based; conditions: Trypanosoma brucei, 427, 48 h
[3] = system: Trypanosoma cruzi; assay: Antiparasite activity against Trypanosoma cruzi Tulahuen expressing beta-galactosidase assessed as growth inhibition incubated for 96 hrs by CPRG dye based assay; format: functional, organism-based
[4] = system: Leishmania major; assay: Antiparasite activity against Leishmania major promastigotes assessed as growth inhibition incubated for 44 hrs by alamar blue dye based fluorescence assay; format: functional, organism-based
[5] = system: Leishmania major; assay: Antiparasite activity against luciferase-expressing Leishmania major amastigotes isolated from infected in mouse RAW264.7 cells assessed as growth inhibition incubated for 96 hrs by luciferase reporter gene assay; format: functional, organism-based; conditions: RAW264.7, 96 h
[6] = system: Plasmodium falciparum; assay: Antiparasite activity against Plasmodium falciparum D6 assessed as growth inhibition incubated for 72 hrs by SYBR green fluorescence assay; format: functional, organism-based; conditions: D6, 72 h
[7] = system: Plasmodium falciparum; assay: Antiparasite activity against drug resistant Plasmodium falciparum W2 assessed as growth inhibition incubated for 72 hrs by SYBR green fluorescence assay; format: functional, organism-based; conditions: W2, 72 h
[8] = system: Plasmodium falciparum; assay: Antiparasite activity against drug resistant Plasmodium falciparum C235 assessed as growth inhibition incubated for 72 hrs by SYBR green fluorescence assay; format: functional, organism-based; conditions: C235, 72 h

SMILES	CC50 at 48 h [1] [nM]	EC50 [2] [nM]	EC50 [3] [nM]	EC50 [4] [nM]	EC50 [5] [nM]	EC50 [6] [nM]	EC50 [7] [nM]	EC50 [8] [nM]
CN1CCCN(S(=O)(=O)c2ccc(-c3cc4c(Nc5ccc(OCc6cccc(F)c6)c(Cl)c5)ncnc4s3)cc2)CC1	> 15000	–	–	–	–	–	–	–
CN1CCN(S(=O)(=O)c2ccc(-c3ccc4c(Nc5ccc(OCc6cccc(F)c6)c(Cl)c5)nncc4c3)cc2)CC1	> 15000	1200	18000	1300	> 15000	45	130	76
CN1CCCN(S(=O)(=O)c2ccc(-c3cc4ncnc(Nc5ccc(OCc6cccc(F)c6)c(Cl)c5)c4s3)cc2)CC1	> 15000	–	–	–	–	–	–	–
Fc1cccc(COc2ccc(Nc3ncnc4cc(-c5cccc(N6CCOCC6)c5)sc34)cc2Cl)c1	> 15000	–	–	–	–	–	–	–
CN1CCCN(S(=O)(=O)c2ccc(-c3ccc4ccnc(Nc5ccc(OCc6cccc(F)c6)c(Cl)c5)c4c3)cc2)CC1	> 15000	730	4700	1300	2200	86	270	100
O=S(=O)(c1ccc(-c2cc3c(Nc4ccc(OCc5ccccc5)c(Cl)c4)ncnc3s2)cc1)N1CCOCC1	> 15000	–	–	–	–	–	–	–
CN1CCCN(S(=O)(=O)c2ccc(-c3ccc4c(Nc5ccc(OCc6cccc(F)c6)c(Cl)c5)ccnc4c3)cc2)CC1	5000	87	730	400	890	94	66	67
CN1CCN(S(=O)(=O)c2ccc(-c3ccc4ncc(C#N)c(Nc5ccc(OCc6ccccc6)c(Cl)c5)c4c3)cc2)CC1	> 15000	1900	> 50000	4100	> 15000	210	510	260
CN1CCCN(S(=O)(=O)c2ccc(-c3ccc4nncc(Nc5ccc(OCc6cccc(F)c6)c(Cl)c5)c4c3)cc2)CC1	7300	580	2200	4100	1060	27	63	19
CN1CCCN(S(=O)(=O)c2ccc(-c3ccc4c(Nc5ccc(OCc6cccc(F)c6)c(Cl)c5)nncc4c3)cc2)CC1	3400	510	1300	410	1100	29	64	45
Cc1ccc(C(=O)Nc2ccc(S(=O)(=O)O)c3cc(S(=O)(=O)O)cc(S(=O)(=O)O)c23)cc1NC(=O)c1cccc(NC(=O)Nc2cccc(C(=O)Nc3cc(C(=O)Nc4ccc(S(=O)(=O)O)c5cc(S(=O)(=O)O)cc(S(=O)(=O)O)c45)ccc3C)c2)c1 [SURAMIN]	–	40	–	–	–	–	–	–
CN1CCCN(S(=O)(=O)c2ccc(-c3ccc4c(Nc5ccc(OCc6cccc(F)c6)c(Cl)c5)nccc4c3)cc2)CC1	> 15000	390	33000	440	4400	410	2200	1000
CN1CCCN(S(=O)(=O)c2ccc(-c3ccc4nccc(Nc5ccc(OCc6cccc(F)c6)c(Cl)c5)c4c3)cc2)CC1	4300	140	930	400	2300	86	81	110
CN1CCN(S(=O)(=O)c2ccc(-c3cc4ncnc(Nc5ccc(OCc6cccc(F)c6)c(Cl)c5)c4s3)cc2)CC1	> 15000	–	–	–	–	–	–	–
O=S(=O)(c1ccc(-c2ccc3cnnc(Nc4ccc(OCc5ccccc5)c(Cl)c4)c3c2)cc1)N1CCOCC1	> 5200	860	> 50000	> 3400	> 4000	540	1700	1200
CN1CCCN(S(=O)(=O)c2ccc(-c3ccc4ncnc(Nc5ccc(OCc6cccc(F)c6)c(Cl)c5)c4c3)cc2)CC1	1100	–	510	3600	2100	46	–	–
Fc1cccc(COc2ccc(Nc3nncc4ccc(-c5cccc(N6CCOCC6)c5)cc34)cc2Cl)c1	> 15000	290	> 50000	> 15000	1700	110	610	400
CN1CCN(S(=O)(=O)c2ccc(-c3ccc4c(Nc5ccc(OCc6cccc(F)c6)c(Cl)c5)cnnc4c3)cc2)CC1	> 15000	1000	3100	5700	2000	14	55	25

SMILES	CC50 at 48 h [1] [nM]	EC50 [2] [nM]	EC50 [3] [nM]	EC50 [4] [nM]	EC50 [5] [nM]	EC50 [6] [nM]	EC50 [7] [nM]	EC50 [8] [nM]
CN1CCCN(S(=O)(=O)c2ccc(-c3ccc4ncc(C#N)c(Nc5ccc(OCc6ccccc6)c(Cl)c5)c4c3)cc2)CC1	13000	430	950	1600	2300	58	84	58
O=S(=O)(c1ccc(-c2cc3ncnc(Nc4ccc(OCc5ccccc5)c(Cl)c4)c3s2)cc1)N1CCOCC1	> 5000	–	–	–	–	–	–	–
O=S(=O)(c1ccc(-c2ccc3c(Nc4ccc(OCc5ccccc5)c(Cl)c4)cnnc3c2)cc1)N1CCOCC1	> 11000	1200	15000	> 15000	> 15000	150	530	300
Fc1cccc(COc2ccc(Nc3nncc4cc(-c5cccc(N6CCOCC6)c5)ccc34)cc2Cl)c1	> 15000	1400	> 50000	> 15000	2200	240	620	340
O=C(Cn1ccnc1[N+](=O)[O-])NCc1ccccc1 [BENZNIDAZOLE]	–	–	1200	–	–	–	–	–
CN1CCN(S(=O)(=O)c2ccc(-c3ccc4cnnc(Nc5ccc(OCc6cccc(F)c6)c(Cl)c5)c4c3)cc2)CC1	> 5000	2000	> 50000	> 3200	> 4000	130	430	380
Fc1cccc(COc2ccc(Nc3ccnc4cc(-c5cccc(N6CCOCC6)c5)ccc34)cc2Cl)c1	> 5000	1200	2700	1400	3700	61	180	80
O=S(=O)(c1ccc(-c2ccc3c(Nc4ccc(OCc5ccccc5)c(Cl)c4)ccnc3c2)cc1)N1CCOCC1	> 3000	240	3500	> 1500	> 1500	16	44	18
O=S(=O)(c1ccc(-c2ccc3nncc(Nc4ccc(OCc5ccccc5)c(Cl)c4)c3c2)cc1)N1CCOCC1	> 15000	1200	> 50000	> 15000	> 15000	820	940	1400
N#Cc1cnc2ccc(-c3cccc(N4CCOCC4)c3)cc2c1Nc1ccc(OCc2ccccc2)c(Cl)c1	> 15000	760	> 50000	> 15000	> 15000	970	820	970
CN1CCN(S(=O)(=O)c2ccc(-c3ccc4ccnc(Nc5ccc(OCc6cccc(F)c6)c(Cl)c5)c4c3)cc2)CC1	> 15000	1800	> 50000	> 15000	> 15000	40	200	89
O=S(=O)(c1ccc(-c2ccc3c(Nc4ccc(OCc5ccccc5)c(Cl)c4)nccc3c2)cc1)N1CCOCC1	> 5000	91	> 50000	> 15000	> 3000	3400	3400	3400
CN1CCN(S(=O)(=O)c2ccc(-c3ccc4c(Nc5ccc(OCc6cccc(F)c6)c(Cl)c5)nccc4c3)cc2)CC1	> 15000	100	> 50000	2700	> 15000	110	360	180
Fc1cccc(COc2ccc(Nc3ncnc4sc(-c5cccc(N6CCOCC6)c5)cc34)cc2Cl)c1	> 15000	–	–	–	–	–	–	–
Fc1cccc(COc2ccc(Nc3cnnc4ccc(-c5cccc(N6CCOCC6)c5)cc34)cc2Cl)c1	> 15000	1100	> 50000	> 15000	> 15000	540	1500	690
Fc1cccc(COc2ccc(Nc3ccnc4ccc(-c5cccc(N6CCOCC6)c5)cc34)cc2Cl)c1	10000	1000	6600	900	4000	35	96	43
C[C@@H]1[C@H](O)[C@@H](C)/C=C/C=C/C=C/C=C/C=C/C=C/C=C/[C@H](O[C@@H]2O[C@H](C)[C@@H](O)[C@H](N)[C@@H]2O)C[C@@H]2O[C@](O)(C[C@@H](O)C[C@@H](O)[C@H](O)CC[C@@H](O)C[C@@H](O)CC(=O)O[C@H]1C)C[C@H](O)[C@H]2C(=O)O [AMPHOTERICIN B]	–	–	–	89	47	–	–	–
CN1CCN(S(=O)(=O)c2ccc(-c3cc4c(Nc5ccc(OCc6cccc(F)c6)c(Cl)c5)ncnc4s3)cc2)CC1	> 15000	–	–	–	–	–	–	–

Reference: ChEMBL document CHEMBL3588845, “Protozoan Parasite Growth Inhibitors Discovered by Cross-Screening Yield Potent Scaffolds for Lead Discovery” (J Med Chem, 2015)
